Source: publication PMC1769465, “Toxicity Assays in Nanodrops Combining Bioassay and Morphometric Endpoints” (PLoS ONE, 2007)
Where two headings read alike, the source gives them in different places.

What was measured:
[1] = tested on: Drosophila melanogaster hsp22 promoter; type: cell-based; details: for IC50: read-out: IC50 derived from KS curves, EGFP expression
[2] = tested on: HepG2 A10/hsp22 stress inducible clone; assay: cells; type: cell-based, human
[3] = tested on: HepG2 A10/hsp22 stress inducible clone; details: for IC50: read-out: IC50 (Cell Number)
[4] = tested on: hsp22 promoter; details: cited from earlier work
[5] = tested on: HepG2 cells; details: cited from earlier work
[6] = tested on: HepG2 cells; set-up: method as in PMID 16111842; details: read-out: IC50, neutral red quantification, cited from earlier work
[7] = tested on: HepG2 cells; set-up: method as in PMID 16111842; details: read-out: IC50, MTT assay, cited from earlier work
[8] = tested on: EGFP expressing stress inducible clones; set-up: method as in PMID 16492392; details: 6 h toxic induction combined with a 12–18 h recovery period; read-out: IC50 in 96 well format assays; cited from earlier work
[9] = tested on: HeLa cells; details: cited from earlier work
[10] = tested on: HepG2 A10/hsp22 stress inducible clone; assay: cells; details: Homo sapiens, HepG2, read-out: IC50 (Cell Number)
[11] = calculated on Kolmogorov-Smirnov score curves
[12] = […], linear regression, two independent experiments
[13] = same stress inducible clones, 96-well format

Sodium arsenate
dose at which EGFP Grey Level reached the KS score 0.2 threshold [1]: 10 µM | dose at which EGFP expression could be detected [1]: 20 µM | dose at which hsp22 promoter activation (EGFP) disappeared [1]: 100 µM | IC50 [1]: 19 µM | Cell Area after toxic insult (cell shrinkage) [2]: around 400 µm^2 | IC50 derived from KS curves, Roundness [2]: no significant Roundness effect | IC50 derived from KS curves, Shape Index [2]: 32 µM | IC50 for Shape Index [2]: 24 µM | concentrations causing a decrease in Shape Index [2]: above 20 µM | dose after which Shape Index distribution was significantly different from control (KS) [2]: > 50 µM | dose at which Cell Area reached the KS score 0.2 threshold [2]: 5 µM | dose at which increase in Cell Roundness occurred [2]: 100 µM | IC50 ([2]; read-out: IC50 derived from KS curves, Cell Area): 19 µM | IC50 ([2]; read-out: IC50 for Cell Area): 29 µM | IC50 ([2]; read-out: IC50 for Cell Roundness): 59 µM | doses giving an obvious decrease in cell number [3]: greater than 20 µM | IC50 [3]: 85 µM | induction windows [4]: 10 to 100 µM | IC50 [5]: 60 to 70 µM | concentration that elicited mild (20–25%) cytotoxicity [5]: 55 µM | concentration that elicited minimal (≤5%) cytotoxicity [5]: 15 µM | concentration that elicited more severe (approximately 50%) cytotoxicity [5]: 70 µM

[Cl][Cd][Cl] [CdCl2, Cadmium chloride]
dose at which EGFP expression could be detected [1]: 50 µM | dose at which hsp22 promoter activation (EGFP) disappeared [1]: 100 µM | dose of maximum activation of hsp22 promoter (EGFP expression) [1]: around 50 µM | IC50 [1, 11]: 28 µM | concentrations causing a decrease in Shape Index ([2]; HepG2 A10 clone): above 20 µM | IC50 for Shape Index [2, 12]: 32 µM | IC50 ([2]; […], linear regression, two independent experiments, read-out: IC50 for Cell Area): 29 µM | IC50 ([2]; […], linear regression, two independent experiments, read-out: IC50 for Cell Roundness): 52 µM | IC50 derived from KS curves, Shape Index [2, 11]: 48 µM | IC50 ([2]; calculated on Kolmogorov-Smirnov score curves, read-out: IC50 derived from KS curves, Cell Area): 25 µM | IC50 ([2]; calculated on Kolmogorov-Smirnov score curves, read-out: IC50 derived from KS curves, Roundness): 60 µM | Cell Area after toxic insult (cell shrinkage) ([2]; decrease from around 900 µm^2): around 400 µm^2 | dose at which increase in Cell Roundness occurred ([2]; late dose, particularly with cadmium): 100 µM | doses giving an obvious decrease in cell number [3]: greater than 20 µM | IC50 [3, 12]: 83 µM | IC50 ([6]; HepG2, 5 h exposure): 100 µM | IC50 ([6]; HepG2, 8 h exposure): 80 µM | IC50 ([6]; HepG2, 24 h exposure): 8 µM | IC50 ([7]; HepG2, 3 h exposure): 500 µM | IC50 ([7]; HepG2, 5 h exposure): 100 µM | IC50 ([7]; HepG2, 8 h exposure): 40 µM | IC50 ([7]; HepG2, 24 h exposure): 15 µM | IC50 [8]: 50 µM | induction windows ([4]; reported): 10 to 100 µM | concentration over which promoter activity gradually decreased [4, 13]: over 60 µM | peak expression of EGFP (concentration) [4, 13]: around 50 µM | concentration that elicited mild (20–25%) cytotoxicity ([5]; HepG2, 24 h exposure): 40 µM | concentration that elicited minimal (≤5%) cytotoxicity ([5]; HepG2, 24 h exposure): 15 µM | concentration that elicited more severe (approximately 50%) cytotoxicity ([5]; HepG2, 24 h exposure): 60 µM | IC50 ([5]; read-out: IC50 for cytotoxicity, HepG2, 24 h exposure): 60 to 70 µM | CC50 [9]: 50 µM

C[n+]1ccc(-c2cc[n+](C)cc2)cc1 [Paraquat]
EGFP expression with hsp22 promoter (in words) ([1]; HepG2 A10 clone, 0.5 µM to 1 mM): did not induce any significant EGFP expression | IC50 ([2]; Homo sapiens, HepG2, 6 h, […], linear regression, two independent experiments, read-out: IC50 for Cell Area): 44 µM | IC50 for Shape Index [2, 12]: 29 µM | Shape Index effect (in words) ([2]; compared with Arsenate and Cadmium): did not induce as significant a decrease of this index | Cell Roundness effect (in words) ([2]; compared with heavy metals): produced a less significant effect | Cell Area after toxic insult (cell shrinkage) ([2]; decrease from around 900 µm^2): 700 µm^2 | doses giving an obvious decrease in cell number ([3]; human): greater than 20 µM | IC50 [10]: 88 µM
